Read-outs that look alike come from different tables or passages of the source.

For 22 molecules, IC50 results are on record in patent US11845760B2, “PRMT5 inhibitors” (AMGEN INC., priority 2020, dated 2023).

One assay deals with HCT116 MTAP null cells. Description: HCT116 MTAP null cell line proliferation (CellTiter-Glo cell viability, 6 days). The class given is cell-based. As to conditions: HCT116 MTAP null cells, 6 days of treatment, CellTiter-Glo cell viability, read-out: HCT-116 MTAP null IC50. A digest of the protocol:
(§1)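 Isogenic HCT116 pair (both MTAP alleles knocked out vs parent) in RPMI 1640 + 10% FBS, seeded overnight at 37° C, 5% CO2, then exposed 6 days to 8- or 9-point 1:3 dilutions from 1 or 10 μM. CellTiter-Glo luminescence; IC50 from sigmoidal fit, Hill slope fixed −1, top 100%, or 4-parameter logistic.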
(In ATP-based viability assays light output follows the ATP content of the culture.)

The test system of another assay is HCT116 WT cells. Description: HCT116 WT cell line proliferation (CellTiter-Glo cell viability, 6 days). The class given is cell-based. As to conditions: HCT116 WT (parent) cells, 6 days of treatment, CellTiter-Glo cell viability, read-out: HCT-116 WT IC50. A digest of the protocol: as §1

For the molecule `C[C@@H]1COC[C@H](c2ccc(C(F)(F)F)cc2)N1C(=O)c1cc2c(cc1F)nc(N)c1c2cnn1C` [Example 531, (4-amino-7-fluoro-3-methyl-3H-pyrazolo[3,4-c]quinolin-8-yl)((3R,5S)-3-methyl-5-(4-(trifluoromethyl)phenyl)-4-morpholinyl)methanone], the IC50 in the assay with HCT116 MTAP null cells (HCT116-MTAP null, 144 h) worked out at 0.013 µM; in the assay on HCT116 WT cells (Homo sapiens, HCT-116, 144 h), 0.215 µM.
Turning to `C[C@H]1OCc2c1c(N)nc1ccc(C(=O)N3C[C@@H](c4ccccc4)[C@@H]4CCC[C@@H]43)cc21` [Example 400, ((3R)-4-amino-3-methyl-1,3-dihydrofuro[3,4-c]quinolin-8-yl)((3R,3aS,6aS)-3-phenylhexahydrocyclopenta[b]pyrrol-1(2H)-yl)methanone], the IC50 was found to be 0.159 µM in the assay with HCT116 MTAP null cells (HCT116-MTAP null, 144 h) and 7 µM with HCT116 WT cells (Homo sapiens, HCT-116, 144 h).
On the same counts, the results for `Cn1ncc2c3cc(C(=O)N4CCOC[C@@H]4c4ccc(OC(F)F)cn4)ccc3nc(N)c21` [Example 369, (4-amino-3-methyl-3H-pyrazolo[3,4-c]quinolin-8-yl)((3S)-3-(5-(difluoromethoxy)-2-pyridinyl)-4-morpholinyl)methanone] are 0.34 µM and 15.4 µM.
The corresponding values for `Cn1ncc2c(N)nc3cc(F)c(C(=O)N4CC[C@H](c5ccc(C(F)(F)F)cc5)C4)cc3c21` [Example 436, (4-amino-7-fluoro-1-methyl-1H-pyrazolo[4,3-c]quinolin-8-yl)((3R)-3-(4-(trifluoromethyl)phenyl)-1-pyrrolidinyl)methanone] are 0.029 µM and 1.72 µM.
On the same counts, the results for `C[C@@H]1COC[C@H](c2ccc(OC(F)F)nn2)N1C(=O)c1cc2c3c(c(N)nc2cc1F)[C@@H](C)OC3` [Example 562, ((3R)-4-amino-7-fluoro-3-methyl-1,3-dihydrofuro[3,4-c]quinolin-8-yl)((3S,5R)-3-(6-(difluoromethoxy)-3-pyridazinyl)-5-methyl-4-morpholinyl)methanone] are 0.006 µM and 0.084 µM.
Turning to “(4-amino-1-methyl-1H- pyrazolo[4,3- c][1,7]naphthyridin-8- yl)((3R)-3-(4- (trifluoromethyl)phenoxy)-1- pyrrolidinyl)methanone and (4-amino-1-methyl-1H- pyrazolo[4,3- c][1,7]naphthyridin-8- yl)((3S)-3-(4- (trifluoromethyl)phenoxy)-1- pyrrolidinyl)methanone [Example 433]”, the figures for the IC50 with HCT116 MTAP null cells and in the assay with HCT116 WT cells were 0.421 µM and 14.6 µM, respectively.
As to `N#Cc1ccc(C2COCCN2C(=O)c2cc3c4c(c(N)nc3cn2)COC4)cc1` (racemic) [Example 388, 4-((3R)-4-((4-amino-1,3-dihydrofuro[3,4-c][1,7]naphthyridin-8-yl)carbonyl)-3-morpholinyl)benzonitrile and 4-((3S)-4-((4-amino-1,3-dihydrofuro[3,4-c][1,7]naphthyridin-8-yl)carbonyl)-3-morpholinyl)benzonitrile], the IC50 in the assay with HCT116 MTAP null cells (HCT116-MTAP null, 144 h) came to 0.838 µM; with HCT116 WT cells (Homo sapiens, HCT-116, 144 h) it was 32.8 µM.
Turning to `C[C@H]1OCc2c1c(N)nc1ccc(C(=O)N3[C@@H](C)COC[C@H]3c3ccc(C(F)(F)F)cn3)cc21` (racemic) [Example 372, ((3R)-4-amino-3-methyl-1,3-dihydrofuro[3,4-c]quinolin-8-yl)((3R,5S)-3-methyl-5-(5-(trifluoromethyl)-2-pyridinyl)-4-morpholinyl)methanone and ((3R)-4-amino-3-methyl-1,3-dihydrofuro[3,4-c]quinolin-8-yl)((3S,5R)-3-methyl-5-(5-(trifluoromethyl)-2-pyridinyl)-4-morpholinyl)methanone], the IC50 in the assay with HCT116 MTAP null cells (HCT116-MTAP null, 144 h) turned out to be 0.023 µM; with HCT116 WT cells (Homo sapiens, HCT-116, 144 h), 0.613 µM.
The corresponding values for `C[C@H]1COC[C@@H](c2ccc(OC(F)(F)F)cn2)N1C(=O)c1ccc2nc(N)c3c(c2c1)COC3` (racemic) [Example 376, (4-amino-1,3-dihydrofuro[3,4-c]quinolin-8-yl)((3R,5S)-3-methyl-5-(5-(trifluoromethoxy)-2-pyridinyl)-4-morpholinyl)methanone and (4-amino-1,3-dihydrofuro[3,4-c]quinolin-8-yl)((3S,5R)-3-methyl-5-(5-(trifluoromethoxy)-2-pyridinyl)-4-morpholinyl)methanone] are 0.029 µM and 1.22 µM.
As to `C[C@@H]1COC[C@H](c2ccc(OC(F)F)nn2)N1C(=O)c1ccc2nc(N)c3c(c2c1)COC3` (racemic) [Example 315, (4-amino-1,3-dihydrofuro[3,4-c]quinolin-8-yl)((3R,5S)-3-(6-(difluoromethoxy)-3-pyridazinyl)-5-methyl-4-morpholinyl)methanone and (4-amino-1,3-dihydrofuro[3,4-c]quinolin-8-yl)((3S,5R)-3-(6-(difluoromethoxy)-3-pyridazinyl)-5-methyl-4-morpholinyl)methanone], the IC50 amounted to 0.106 µM with HCT116 MTAP null cells and 4.75 µM in the assay on HCT116 WT cells.
For `COc1ccc([C@H]2COC[C@@H](C)N2C(=O)c2cc3c(cc2F)nc(N)c2c3cnn2C)nn1` [Example 539, (4-amino-7-fluoro-3-methyl-3H-pyrazolo[3,4-c]quinolin-8-yl)((3S,5R)-3-(6-methoxy-3-pyridazinyl)-5-methyl-4-morpholinyl)methanone], the 50% inhibitory concentration (IC50) in the assay with HCT116 MTAP null cells (HCT116-MTAP null, 144 h) was found to be 0.027 µM; with HCT116 WT cells (Homo sapiens, HCT-116, 144 h), 1.27 µM.
The corresponding values for `C[C@@H]1COC[C@H](c2ccc(OCC(F)(F)F)nn2)N1C(=O)c1cc2c3c(c(N)nc2cn1)COC3` [Example 563, (4-amino-1,3-dihydrofuro[3,4-c][1,7]naphthyridin-8-yl)((3R,5S)-3-methyl-5-(6-(2,2,2-trifluoroethoxy)-3-pyridazinyl)-4-morpholinyl)methanone] are 0.032 µM and 1.06 µM.
For `C[C@@H]1COC[C@H](c2ccc(OC(F)F)c(F)c2)N1C(=O)c1cc2c3c(c(N)nc2cn1)COC3` (racemic) [Example 390, (4-amino-1,3-dihydrofuro[3,4-c][1,7]naphthyridin-8-yl)((3R,5S)-3-(4-(difluoromethoxy)-3-fluorophenyl)-5-methyl-4-morpholinyl)methanone and (4-amino-1,3-dihydrofuro[3,4-c][1,7]naphthyridin-8-yl)((3S,5R)-3-(4-(difluoromethoxy)-3-fluorophenyl)-5-methyl-4-morpholinyl)methanone], the figures for the IC50 in the assay with HCT116 MTAP null cells and in the assay with HCT116 WT cells were 0.165 µM and 6.36 µM, respectively.
Consider `C[C@H]1OCc2c1c(N)nc1ccc(C(=O)N3C[C@H](c4ccccc4)[C@H]4CCC[C@@H]43)cc21` [Example 401, ((3R)-4-amino-3-methyl-1,3-dihydrofuro[3,4-c]quinolin-8-yl)((3S,3aR,6aS)-3-phenylhexahydrocyclopenta[b]pyrrol-1(2H)-yl)methanone], for which the IC50 was determined as 0.677 µM in the assay on HCT116 MTAP null cells (HCT116-MTAP null, 144 h) and 17.6 µM in the assay with HCT116 WT cells (Homo sapiens, HCT-116, 144 h).
Regarding `Cn1ncc2c(N)nc3cc(Cl)c(C(=O)N4CC(c5ccc(C(F)(F)F)cc5)C4)cc3c21` [Example 440, (4-amino-7-chloro-1-methyl-1H-pyrazolo[4,3-c]quinolin-8-yl)(3-(4-(trifluoromethyl)phenyl)-1-azetidinyl)methanone], the IC50 in the assay with HCT116 MTAP null cells (HCT116-MTAP null, 144 h) stood at 0.014 µM; in the assay with HCT116 WT cells (Homo sapiens, HCT-116, 144 h), 0.602 µM.
In the case of `Cn1ncc2c(N)nc3cc(F)c(C(=O)N4CCOC[C@@H]4c4ccc(C(F)(F)F)nn4)cc3c21` [Example 560, (4-amino-7-fluoro-1-methyl-1H-pyrazolo[4,3-c]quinolin-8-yl)((3S)-3-(6-(trifluoromethyl)-3-pyridazinyl)-4-morpholinyl)methanone], the IC50 in the assay on HCT116 MTAP null cells (HCT116-MTAP null, 144 h) was 0.042 µM; in the assay with HCT116 WT cells (Homo sapiens, HCT-116, 144 h) it was 2.88 µM.
For the molecule `Cn1ncc2c(N)nc3cc(F)c(C(=O)N4CC[C@@H](Oc5ccc(C(F)(F)F)cc5)C4)cc3c21` (single isomer, unassigned) [Example 471], the IC50 in the assay with HCT116 MTAP null cells (HCT116-MTAP null, 144 h) came out at 0.283 µM; in the assay on HCT116 WT cells (Homo sapiens, HCT-116, 144 h), 6.01 µM.
Take `C[C@H]1OCc2c1c(N)nc1ccc(C(=O)N3C[C@@H](c4ccccc4)[C@H](c4ccccc4)C3)cc21` (racemic) [Example 431, ((3R)-4-amino-3-methyl-1,3-dihydrofuro[3,4-c]quinolin-8-yl)((3R,4R)-3,4-diphenyl-1-pyrrolidinyl)methanone and ((3R)-4-amino-3-methyl-1,3-dihydrofuro[3,4-c]quinolin-8-yl)((3S,4S)-3,4-diphenyl-1-pyrrolidinyl)methanone]: the IC50 in the assay with HCT116 MTAP null cells (HCT116-MTAP null, 144 h) turned out to be 0.337 µM; in the assay with HCT116 WT cells (Homo sapiens, HCT-116, 144 h), 11.4 µM.
The corresponding values for `C[C@H]1COC[C@@H](c2ccc(OC(F)(F)F)cc2)N1C(=O)c1ccc2nc(N)c3c(c2c1)COC3` (single isomer, unassigned) [Example 587] are above 1 µM and above 10 µM.
On the same counts, the results for `Cn1ncc2c(N)nc3ccc(C(=O)N4CC(c5ccc(C(F)(F)F)cc5)C4)cc3c21` [Example 408, (4-amino-1-methyl-1H-pyrazolo[4,3-c]quinolin-8-yl)(3-(4-(trifluoromethyl)phenyl)-1-azetidinyl)methanone] are 0.118 µM and 6.36 µM.
On the same counts, the results for `Nc1nc2cnc(C(=O)N3CCCC[C@@H]3c3ccc(C(F)(F)F)cc3)cc2c2c1COC2` (single isomer, unassigned) [Example 485] are 0.04 µM and 1.74 µM.
`C[C@H]1COC[C@@H](c2ccc(C(F)(F)F)nc2)N1C(=O)c1cc2c3c(c(N)nc2cn1)COC3` (racemic) [Example 340, (4-amino-1,3-dihydrofuro[3,4-c][1,7]naphthyridin-8-yl)((3R,5S)-3-methyl-5-(6-(trifluoromethyl)-3-pyridinyl)-4-morpholinyl)methanone and (4-amino-1,3-dihydrofuro[3,4-c][1,7]naphthyridin-8-yl)((3S,5R)-3-methyl-5-(6-(trifluoromethyl)-3-pyridinyl)-4-morpholinyl)methanone]: the IC50 in the assay with HCT116 MTAP null cells (HCT116-MTAP null, 144 h) stood at 0.071 µM; in the assay with HCT116 WT cells (Homo sapiens, HCT-116, 144 h) it was 6.45 µM.

One may read the IC50 as the concentration that gives 50% inhibition.
